Source: patent publication US10640463B2, “Chlorhexidine crystal forms and uses thereof in medicine” (Queen Mary University of London, priority 2016, dated 2020)

What was measured:
Format in all cases: physicochemical
[1] = Chlorhexidine release from HEMA-UDMA resin discs, with or without ultrasound
Experimental: HEMA-UDMA resin was prepared by mixing 64% urethane dimethacrylate (UDMA) (Esschem UK, Lot: 591-22) and 36% hydroxyethyl methacrylate (HEMA) (Aldrich, 128635, Lot: STBC7495V), 0.08% of N,N-dimethyl-P-toluidine (Acros Organics, Lot: A0207283001) and 0.05% dimethylamino ethyl methacrylate (Aldrich, 234907, Lot: BCBF8391V) were added. The mixture was then stirred for 15 min (800 rpm, VWR Stirrer, USA). Finally, camphorquinone (Aldrich, 12, 489-3, Lot: 2338141) was added at the proportion of 0.1%. The mixture was stirred for another 15 min (VWR Stirrer, USA), and then the viscous liquid resin was prepared. Freeze dried chlorhexidine chloride compounds produced in Example 2 (precipitated with 0.33 M CaCl2) were weighed and incorporated within the resin at a loading level of 5% by weight. To explore the effect of different morphology on the release kinetics, chlorhexidine compounds with spherical, needle and flake morphology (from Example 1, FIG. 1, panels (b) and (c)) were incorporated into the resin. Incorporation of the chlorhexidine compounds within the resin was carried out by rotating the mixture contained in a 1 ml tube for 15 s in a Rotomix (120V/60 Hz, 2850 rotations/min) (ESPE RotoMix, USA). Chlorhexidine diacetate was also incorporated in the prepared resin in the same way, with loading rates of 5%, 10% and 15% (weight %). The filled resin was then placed into a Teflon mould (10 mm in diameter ×2 mm thick) and cured through a Mylar film with a curing light (Bluedent LED pen, Bulgaria) (430-490 nm, 600 mW/sq·cm) for 30 s. Then the discs were next weighed on a microbalance (Salter Ander-180A weighing scale, UK), and chlorhexidine content in each disc was calculated.
(§1) For the release study, all sample resin discs (HEMA-UDMA) containing chlorhexidine chloride compounds or chlorhexidine diacetate powder prepared in Example 5 were kept in cuvettes containing 3 ml deionized water, and kept at room temperature. And at each time point, solutions were collected for UV absorption tests (Lambda 35, Perkin Elmer, USA) and replaced with fresh deionized water.
For the chlorhexidine chloride compound doped discs (Example 5) chlorhexidine content was fixed at 5%, and ultrasound was exerted. Four groups (five discs in each group) were repetitively treated with ultrasound for 0 s, 10 s, 20 s, 30 s, accordingly, by contacting the ultrasound probe (Piezon Master 400, Swiss, 60 Hz, 45VA) on the disc surface at time points of 1 h, 3 h, 5 h, 15 h, 25 h, 40 h, 65 h, 95 h, 140 h, 205 h. After that, no ultrasound was carried out for all the groups, but release was carried on until the 650 hour time point. The UDMA-HEMA discs containing needle and flake chlorhexidine compounds and chlorhexidine diacetate (FIG. 1, panels (b) and (c), and FIG. 3, panel (g)) were also tested (UV absorption tests) at the same time points (same sample numbers) but without ultrasound treatment. For the chlorhexidine diacetate powder doped discs chlorhexidine content of 5%, 10% and 15% were also analysed, and no ultrasound treatment was carried out.

[2] = Chlorhexidine release from PMMA resin; conditions: 5% loading, after 650 hours
Experimental: as §1
The PMMA resin system was also tested for the release kinetics of spherical chlorhexidine chloride compounds. Specifically, PMMA resin was prepared by mixing the Simplex Rapid Liquid and powder (Kemdent, Lot: 920 758) at a weight ratio of 1:2. The self-cure process took about 15 min, and after which the mixture was filled into a Teflon mould in the same way and pressed (Mestra, Mod.030350). To incorporate the spherical chlorhexidine chloride compounds, they were previously mixed with the Simplex Rapid powder (5% weight of mixture), and the liquid was added.

[3] = Chlorhexidine release from electrospun PLA fibres at different temperatures; conditions: 5% in electrospun PLA fibres, deionized water, after 120 h
Experimental: Electrospinning was utilized to fabricate spherical chlorhexidine chloride compound doped polylactic acid (PLA) fibres. Polylactic acid (Nature works, 2002D) was dissolved in a mixed solvent of chloroform and acetone (3:1 by volume) at 7 wt %. Spherical chlorhexidine chloride compounds were added at 5% weight to the PLA and mixed using a Rotomix. Electrospinning was carried out at room temperature (25° C.), with a pumping rate set at 1 ml/h, working distance at 15 cm, and voltage at 18 kv. Electrospun PLA fibres were collected on a foil. For the chlorhexidine release test, the fibres were weighed (Salter ANDER-180A weighing scale, UK) and divided into cuvettes, and each sample was 25 mg (n=5). Deionized water was added to each cuvette and fibres were kept immersed. Three groups of chlorhexidine chloride compound doped fibres were tested at different temperatures (25, 37 and 60° C.). At each time point (1, 3, 5, 10, 20, 30, 45, 72, 96, 120 h), the solutions were collected for the UV absorption test (Lambda 35, Perkin Elmer, USA) and replaced with fresh deionized water as in Example 6.

chlorhexidine release ([1]; 5% loading, control group without ultrasound (0 s), by 205 hours): 1.2%
chlorhexidine released by weight ([1]; 5% loading, deionized water, room temperature, no ultrasound, within 65 hours): 0.76%
chlorhexidine release ([1]; 5% loading, ultrasound 10 s at each time point, by 205 hours): 4.6%
chlorhexidine release ([1]; 5% loading, ultrasound 20 s at each time point, by 205 hours): 10.1%
chlorhexidine release ([1]; 5% loading, ultrasound 30 s at each time point, by 205 hours): 14.9%
chlorhexidine release ([1]; no ultrasound, after 650 hours): ~2.7%
chlorhexidine released [2]: 8%
chlorhexidine dissolved ([3]; 25° C.): 65.8%
chlorhexidine dissolved ([3]; 37° C.): 79.7%
chlorhexidine dissolved ([3]; 60° C.): 89.6%
SMILES: Cl.Cl.N=C(NCCCCCCNC(=N)NC(=N)Nc1ccc(Cl)cc1)NC(=N)Nc1ccc(Cl)cc1 [chlorhexidine spheres]
